This assay concerns L1210 leukemia ip in BDF1 mice, survival T/C. The assay can be described thus: NCI In Vivo Anticancer Drug Screen. Data for tumor model L1210 Leukemia (intraperitoneal) in B6D2F1 (BDF1) mice. Conditions: endpoint: mean survival time, higher = longer survival. A digest of the protocol: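 Antitumor effect is assessed in tumor-bearing animals. Survival in the compound arm is compared with a vehicle-dosed control arm and expressed as their quotient.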

The mark [1] stands for this setting: dose: 100.0 mg/kg/injection, schedule: Q01DX009 (ip), vehicle: Klucel (hydroxypropylcellulose) (HPC).
[2] abbreviates: dose: 100.0 mg/kg/injection, schedule: Q04DX003 (ip), vehicle: Klucel (hydroxypropylcellulose) (HPC).
Where [3] appears, read: dose: 200.0 mg/kg/injection, schedule: Q01DX009 (ip), vehicle: Klucel (hydroxypropylcellulose) (HPC).
Setting [4] is: dose: 200.0 mg/kg/injection, schedule: Q04DX003 (ip), vehicle: Klucel (hydroxypropylcellulose) (HPC).
[5] abbreviates: dose: 400.0 mg/kg/injection, schedule: Q04DX003 (ip), vehicle: Klucel (hydroxypropylcellulose) (HPC).
The mark [6] stands for this setting: dose: 100.0 mg/kg/injection, schedule: Q01DX009 (ip), vehicle: saline with Tween-80.
The mark [7] stands for this setting: dose: 100.0 mg/kg/injection, schedule: Q04DX003 (ip), vehicle: saline with Tween-80.
The mark [8] stands for this setting: dose: 200.0 mg/kg/injection, schedule: Q01DX009 (ip), vehicle: saline with Tween-80.
[9] abbreviates: dose: 200.0 mg/kg/injection, schedule: Q04DX003 (ip), vehicle: saline with Tween-80.
The mark [10] stands for this setting: dose: 100.0 mg/kg/injection, schedule: Q01DX001 (ip), vehicle: Klucel (hydroxypropylcellulose) (HPC).
Where [11] appears, read: dose: 200.0 mg/kg/injection, schedule: Q01DX001 (ip), vehicle: Klucel (hydroxypropylcellulose) (HPC).
Where [12] appears, read: dose: 50.0 mg/kg/injection, schedule: Q01DX009 (ip), vehicle: saline with Tween-80.
The mark [13] stands for this setting: dose: 100.0 mg/kg/injection, schedule: Q01DX001 (ip), vehicle: saline.
[14] abbreviates: dose: 200.0 mg/kg/injection, schedule: Q01DX001 (ip), vehicle: saline.
The mark [15] stands for this setting: dose: 400.0 mg/kg/injection, schedule: Q01DX001 (ip), vehicle: saline.

Where “and” joins values, the source holds several entries; their conditions need not be identical. Equal entries are not always repeated. Inconclusive results and toxic doses are left out. Bridge positions count the residues as written; N and C are the ends. Peptide text beside a SMILES is read from it. I, II: the chains in the order shown.

Take `CN1CCCN(C)C1c1ccc(Cl)cc1`: the T/C was 99 % of control (dose: 6.25 mg/kg/injection, schedule: Q04DX003 (ip), vehicle: saline); 99 % of control (dose: 12.5 mg/kg/injection, schedule: Q04DX003 (ip), vehicle: saline); 91 % of control (dose: 25.0 mg/kg/injection, schedule: Q04DX003 (ip), vehicle: saline).
As to `O=C(Oc1ccc(Cl)cc1)c1ccc(Cl)cc1`, the T/C (dose: 50.0 mg/kg/injection, schedule: Q01DX009 (ip), vehicle: Klucel (hydroxypropylcellulose) (HPC)) is 101 % of control; the T/C under setting [1] is 94 % of control; the T/C under setting [2] was 101 % of control; the T/C under setting [3] is 95 % of control; the T/C under setting [4] is 99 % of control; the T/C under setting [5] was 92 % of control.
On to `CCOC(=O)c1c[nH]n2c(=S)ncnc12`, for which the T/C is, setting by setting: under setting [6], 96 % of control; under setting [7], 98 % of control; under setting [8], 97 % of control; under setting [9], 104 % of control; (dose: 400.0 mg/kg/injection, schedule: Q04DX003 (ip), vehicle: saline with Tween-80) 102 % of control.
`COC(=O)c1cc(N2CC2)nc(Cl)n1`: the T/C runs as follows: (dose: 25.0 mg/kg/injection, schedule: Q01DX Z (ip), vehicle: methylcellulose (MC)) 101 % of control; (dose: 50.0 mg/kg/injection, schedule: Q01DX Z (ip), vehicle: methylcellulose (MC)) 93 % of control.
As for `CCCCC/C=C(\CCCCCC)c1ccccc1`, the T/C runs as follows: (dose: 100.0 mg/kg/injection, schedule: Q01DX001 (ip), vehicle: saline with Tween-80) 98 % of control; (dose: 200.0 mg/kg/injection, schedule: Q01DX001 (ip), vehicle: saline with Tween-80) 95 % of control; (dose: 400.0 mg/kg/injection, schedule: Q01DX001 (ip), vehicle: saline with Tween-80) 90 % of control.
Take `C1CCC2CC(NC3=NCCO3)CCC2C1` (configuration not stated): the T/C is 96 % of control (dose: 0.19 mg/kg/injection, schedule: Q01DX009 (ip), vehicle: Klucel (hydroxypropylcellulose) (HPC)); 98 % of control (dose: 0.39 mg/kg/injection, schedule: Q01DX009 (ip), vehicle: Klucel (hydroxypropylcellulose) (HPC)); 98 % of control and 113 % of control (dose: 0.78 mg/kg/injection, schedule: Q01DX009 (ip), vehicle: Klucel (hydroxypropylcellulose) (HPC)).
`COc1ccc(OC)c(C(=S)N2CCOCC2)c1`: the T/C is, setting by setting: under setting [10], 94 % of control; under setting [2], 96 % of control; under setting [11], 102 % of control; under setting [4], 96 % of control; (dose: 400.0 mg/kg/injection, schedule: Q01DX001 (ip), vehicle: Klucel (hydroxypropylcellulose) (HPC)) 100 % of control; under setting [5], 96 % of control.
For `CCCN(CCC)CCCCO`, the T/C was 102 % of control under setting [12]; 95 % of control under setting [6]; 92 % of control under setting [7]; 102 % of control under setting [8]; 102 % of control under setting [9].
On to `O/N=C/C=N/O.O/N=C/C=N/O.[Pd]`, for which the T/C is 110 % of control (dose: 1.56 mg/kg/injection, schedule: Q01DX009 (ip), vehicle: saline with Tween-80); 97 % of control (dose: 3.13 mg/kg/injection, schedule: Q01DX009 (ip), vehicle: saline with Tween-80); 112 % of control (dose: 6.25 mg/kg/injection, schedule: Q01DX009 (ip), vehicle: saline with Tween-80).
For `Nc1ncnc2c1ncn2C1OC(C(=O)O)C(O)C1O` (configuration not stated), the T/C (dose: 100.0 mg/kg/injection, schedule: Q01DX005 (ip), vehicle: saline) is 107 % of control and the T/C (dose: 200.0 mg/kg/injection, schedule: Q01DX005 (ip), vehicle: saline) is 101 % of control.
For the molecule `CC(=O)Nc1cccnc1`, the T/C (dose: 50.0 mg/kg/injection, schedule: Q01DX009 (ip), vehicle: saline) was 101 % of control; the T/C (dose: 50.0 mg/kg/injection, schedule: Q04DX003 (ip), vehicle: saline) is 100 % of control; the T/C (dose: 100.0 mg/kg/injection, schedule: Q01DX009 (ip), vehicle: saline) is 101 % of control; the T/C (dose: 100.0 mg/kg/injection, schedule: Q04DX003 (ip), vehicle: saline) was 94 % of control; the T/C (dose: 200.0 mg/kg/injection, schedule: Q01DX009 (ip), vehicle: saline) is 98 % of control; the T/C (dose: 200.0 mg/kg/injection, schedule: Q04DX003 (ip), vehicle: saline) was 97 % of control.
In the case of `COc1ccc2c(c1)-c1c(O)c(OC)cc3c1C(C2)N(C)CC3` (configuration not stated), the T/C is 94 % of control (dose: 75.0 mg/kg/injection, schedule: Q01DX001 (ip), vehicle: saline); 98 % of control (dose: 150.0 mg/kg/injection, schedule: Q01DX001 (ip), vehicle: saline); 100 % of control (dose: 300.0 mg/kg/injection, schedule: Q01DX001 (ip), vehicle: saline).
`CCOC(=O)C(Cc1ccc(O)cc1)NC(=O)C(N)CSSCC(N)C(=O)NC(Cc1ccc(O)cc1)C(=O)OCC` (stereo not drawn) (I: H-Cys-Tyr-OEt / II: H-Cys-Tyr-OEt; disulfide I:1-II:1; configuration not given here): the T/C under setting [13] was 97 % of control, the T/C under setting [14] was 105 % of control and the T/C under setting [15] was 94 % of control.
Regarding `ClCCCCOCCl`, the T/C is, setting by setting: under setting [12], 101 % of control; under setting [6], 97 % of control; under setting [8], 87 % of control.
Turning to `CN1CC(C)(C)C(=O)N1`, the T/C was 97 % of control (dose: 25.0 mg/kg/injection, schedule: Q01DX001 (ip), vehicle: saline); 100 % of control (dose: 50.0 mg/kg/injection, schedule: Q01DX001 (ip), vehicle: saline); 108 % of control under setting [13]; 86 % of control under setting [14].
For `CC1CC=C(C(=O)O)CC1` (configuration not stated), the T/C (dose: 50.0 mg/kg/injection, schedule: Q01DX001 (ip), vehicle: other) is 90 % of control; the T/C (dose: 100.0 mg/kg/injection, schedule: Q01DX001 (ip), vehicle: other) is 95 % of control; the T/C (dose: 200.0 mg/kg/injection, schedule: Q01DX001 (ip), vehicle: other) is 93 % of control; the T/C (dose: 400.0 mg/kg/injection, schedule: Q01DX001 (ip), vehicle: other) is 95 % of control.
As for `NC(=O)c1ncn(C2CC(CO)C(O)C2O)c1N` (configuration not stated), the T/C by setting is: under setting [13], 100 % of control; under setting [14], 110 % of control; under setting [15], 104 % of control.
For the molecule `COc1ccccc1-n1c(=O)c(N=Nc2ccc(Cl)cc2)c(O)n(-c2ccccc2Cl)c1=S`, the T/C was 94 % of control (dose: 50.0 mg/kg/injection, schedule: Q01DX001 (ip), vehicle: Klucel (hydroxypropylcellulose) (HPC)); 101 % of control under setting [10]; 92 % of control under setting [11].
On to `CS(=O)(=O)Nc1ccc(Nc2c3ccccc3nc3cc(N)ccc23)cc1`, for which the T/C was 152 % of control (dose: 0.4 mg/kg/injection, schedule: Q01DX009 (ip), vehicle: saline); 100 % of control (dose: 1.25 mg/kg/injection, schedule: Q01DX009 (ip), vehicle: saline); 123 % of control (dose: 4.0 mg/kg/injection, schedule: Q01DX009 (sc), vehicle: saline); 88 % of control (dose: 5.0 mg/kg/injection, schedule: Q01DX009 (ip), vehicle: saline); 92 % of control (dose: 20.0 mg/kg/injection, schedule: Q01DX001 (ip), vehicle: saline); 89 % of control (dose: 40.0 mg/kg/injection, schedule: Q01DX001 (ip), vehicle: saline).
Consider `O=C(O)/C=C/c1cc2c(cc1[N+](=O)[O-])OCO2`, for which the T/C is 98 % of control under setting [1]; 86 % of control under setting [2]; 93 % of control under setting [3]; 95 % of control under setting [4]; 88 % of control (dose: 400.0 mg/kg/injection, schedule: Q01DX009 (ip), vehicle: Klucel (hydroxypropylcellulose) (HPC)); 100 % of control under setting [5].
Turning to `O=C(Cl)C12CC3CC(CC(C3)C1)C2`, the T/C reads like this: (dose: 100.0 mg/kg/injection, schedule: Q04DX002 (ip), vehicle: Klucel (hydroxypropylcellulose) (HPC)) 111 % of control; (dose: 200.0 mg/kg/injection, schedule: Q04DX002 (ip), vehicle: Klucel (hydroxypropylcellulose) (HPC)) 111 % of control; (dose: 400.0 mg/kg/injection, schedule: Q04DX002 (ip), vehicle: Klucel (hydroxypropylcellulose) (HPC)) 100 % of control.
